What was measured:
Assay in all cases: in vitro susceptibility, MIC by mini broth dilution
Format in all cases: cell-based
[1] = system: Pasteurella multocida CVCC399; conditions: strain CVCC399
Procedure, shortened: (§1)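 Broth microdilution MIC, NCCLS method: 11-point two-fold DMSO compound series, duplicate rows, well 12 as control. Inoculum from 20 h, 35° C plate cultures, diluted 1:200 in broth.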

[2] = system: Actinobacillus pleuropneumoniae CVCC262; conditions: strain CVCC262
Procedure, shortened: as §1

Haemophilus parasuis = system: Haemophilus parasuis
Procedure, shortened: as §1

[3] = system: Streptococcus equines CVCC556; conditions: strain CVCC556
Procedure, shortened: as §1

[4] = system: Staphylococcus aureus CVCC26003; conditions: strain CVCC26003
Procedure, shortened: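 S. aureus CVCC26003 was revived and subcultured twice, 20 h each at 35° C, on solid medium, then diluted 1:200 in CAMHB liquid medium. Compounds received an 11-step two-fold DMSO dilution in parallel duplicate rows. MIC was read by mini broth dilution per NCCLS guidance.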

Compound | MIC values, Pasteurella multocida CVCC399 [1] | MIC values, Actinobacillus pleuropneumoniae CVCC262 [2] | MIC values, Haemophilus parasuis (Haemophilus parasuis) | MIC values, Streptococcus equines CVCC556 [3] | MIC values, Staphylococcus aureus CVCC26003 [4]
CCC(CO)NC[C@]1(O)[C@H](C)O[C@@H](O[C@H]2[C@H](C)[C@@H](O[C@@H]3O[C@H](C)C[C@H](N(C)C)[C@H]3O)[C@](C)(O)C[C@@H](C)NC[C@H](C)[C@@H](O)[C@](C)(O)[C@@H](CC)OC(=O)[C@@H]2C)C[C@@]1(C)OC (stereo partly drawn) [syzx-51, (2R,3S,4R,5S,8R,10R,11R,12S,13S,14R)-13-[(2,6-dideoxy-3-C-methyl-3-O-methyl-4-C-[(1-hydroxymethyl-propylamino)-methyl]-α-L-ribopyranosyl)oxy]-2-ethyl-3,4,10-trihydroxy-3,5,8,10,12,14-hexamethyl-11-[[3,4,6-trideoxy-3-(dimethylamino)-β-D-xylo-hexopyranosy]oxy]-1-oxa-7-azacyclopentadecan-15-one] | 0.5 ug/mi | 1 ug/mi | 2 ug/mi | 1 ug/mi | 0.5 ug/mi
CC[C@H]1OC(=O)[C@H](C)[C@@H](O[C@H]2C[C@@](C)(OC)[C@](O)(CNC(C)CCCN(C)C)[C@H](C)O2)[C@H](C)[C@@H](O[C@@H]2O[C@H](C)C[C@H](N(C)C)[C@H]2O)[C@](C)(O)C[C@@H](C)NC[C@H](C)[C@@H](O)[C@]1(C)O (stereo partly drawn) [syzx-59, (2R,3S,4R,5S,8R,10R,11R,12S,13S,14R)-13-[(2,6-dideoxy-3-C-methyl-3-O-methyl-4-C-[(1-methyl-4-dimethylaminobutylamino)-methyl]-α-L-ribopyranosyl)oxy]-2-ethyl-3,4,10-trihydroxy-3,5,8,10,12,14-hexamethyl-11-[[3,4,6-trideoxy-3-(dimethylamino)-β-D-xylo-hexopyranosy]oxy]-1-oxa-7-azacyclopentadecan-15-one] | 2 ug/mi | 32 ug/mi | 0.5 ug/mi | 2 ug/mi | 1 ug/mi
C#CC=C(C)NC[C@]1(O)[C@H](C)O[C@@H](O[C@H]2[C@H](C)[C@@H](O[C@@H]3O[C@H](C)C[C@H](N(C)C)[C@H]3O)[C@](C)(O)C[C@@H](C)NC[C@H](C)[C@@H](O)[C@](C)(O)[C@@H](CC)OC(=O)[C@@H]2C)C[C@@]1(C)OC [syzx-62] | 0.5 ug/mi | 8 ug/mi | ≦0.25 ug/mi | ≦0.25 ug/mi | 0.5 ug/mi
CC[C@H]1OC(=O)[C@H](C)[C@H](O[C@H]2C[C@@](C)(OC)[C@](O)(CNCCc3ccncc3)[C@H](C)O2)[C@H](C)[C@@H](O[C@@H]2O[C@H](C)C[C@H](N(C)C)[C@H]2O)[C@](C)(O)C[C@@H](C)NC[C@H](C)[C@@H](O)[C@]1(C)O [syzx-64] | 0.25 ug/mi | 0.5 ug/mi | ≦0.25 ug/mi | 0.25 ug/mi | ≦0.25 ug/mi

More lines, now with the values ahead:

MIC values, Pasteurella multocida CVCC399 [1] | MIC values, Actinobacillus pleuropneumoniae CVCC262 [2] | MIC values, Haemophilus parasuis (Haemophilus parasuis) | MIC values, Streptococcus equines CVCC556 [3] | MIC values, Staphylococcus aureus CVCC26003 [4] | Compound
1 ug/mi | 0.5 ug/mi | 0.5 ug/mi | 1 ug/mi | 1 ug/mi | CC[C@H]1OC(=O)[C@H](C)[C@@H](OC2CC(C)(OC)C(O)(CNC(C)CC(=O)O)C(C)O2)[C@H](C)[C@@H](O[C@@H]2O[C@H](C)C[C@H](N(C)C)[C@H]2O)[C@](C)(O)C[C@@H](C)NC[C@H](C)[C@@H](O)[C@]1(C)O (stereo partly drawn) [syzx-50, 3-({(2R,3S,4R,5S,8R,10R,11R,12S,13S,14R)-6-[-11-[[3,4,6-trideoxy-3-(dimethylamino)-β-D-xylo-hexopyranosy]oxy]-2-ethyl-3,4,10-trihydroxy-3,5,8,10,12,14-hexamethyl-1-oxa-7-azacyclopentadecan-15-one-13-yl-oxy]-3-hydroxy-4-methoxy-2,4-dimethyl-tetrahydropyran-3-yl-methyl}-amino)-butyric acid]
0.5 ug/mi | 32 ug/mi | ≦0.25 ug/mi | 0.5 ug/mi | 0.5 ug/mi | CC[C@H]1OC(=O)[C@H](C)[C@@H](O[C@H]2C[C@@](C)(OC)[C@](O)(CNCC(O)c3ccccc3)[C@H](C)O2)[C@H](C)[C@@H](O[C@@H]2O[C@H](C)C[C@H](N(C)C)[C@H]2O)[C@](C)(O)C[C@@H](C)NC[C@H](C)[C@@H](O)[C@]1(C)O (stereo partly drawn) [syzx-52, (2R,3S,4R,5S,8R,10R,11R,12S,13S,14R)-13-[(2,6-dideoxy-3-C-methyl-3-O-methyl-4-C-[(2-hydroxy-2-phenyl-ethylamino)-methyl]-α-L-ribopyranosyl)oxy]-2-ethyl-3,4,10-trihydroxy-3,5,8,10,12,14-hexamethyl-11-[[3,4,6-trideoxy-3-(dimethylamino)-β-D-xylo-hexopyranosy]oxy]-1-oxa-7-azacyclopentadecan-15-one]
1 ug/mi | 0.25 ug/mi | 0.5 ug/mi | 0.25 ug/mi | 0.5 ug/mi | CC[C@H]1OC(=O)[C@H](C)[C@@H](O[C@H]2C[C@@](C)(OC)[C@](O)(CNCCCC(OC)OC)[C@H](C)O2)[C@H](C)[C@@H](O[C@@H]2O[C@H](C)C[C@H](N(C)C)[C@H]2O)[C@](C)(O)C[C@@H](C)NC[C@H](C)[C@@H](O)[C@]1(C)O [syzx-56, (2R,3S,4R,5S,8R,10R,11R,12S,13S,14R)-13-[(2,6-dideoxy-3-C-methyl-3-O-methyl-4-C-[(4-dimethoxy-butylamino)-methyl]-α-L-ribopyranosyl)oxy]-2-ethyl-3,4,10-trihydroxy-3,5,8,10,12,14-hexamethyl-11-[[3,4,6-trideoxy-3-(dimethylamino)-β-D-xylo-hexopyranosy]oxy]-1-oxa-7-azacyclopentadecan-15-one]
32 ug/mi | ≦0.25 ug/mi | ≦0.25 ug/mi | 4 ug/mi | ≦0.25 ug/mi | CC[C@H]1OC(=O)[C@H](C)[C@@H](O[C@H]2C[C@@](C)(OC)[C@](O)(CNCc3ccc(Cl)c(Cl)c3)[C@H](C)O2)[C@H](C)[C@@H](O[C@@H]2O[C@H](C)C[C@H](N(C)C)[C@H]2O)[C@](C)(O)C[C@@H](C)NC[C@H](C)[C@@H](O)[C@]1(C)O [syzx-57, (2R,3S,4R,5S,8R,10R,11R,12S,13S,14R)-13-[(2,6-dideoxy-3-C-methyl-3-O-methyl-4-C-[(3,4-dichloro-benzylamino)-methyl]-α-L-ribopyranosyl)oxy]-2-ethyl-3,4,10-trihydroxy-3,5,8,10,12,14-hexamethyl-11-[[3,4,6-trideoxy-3-(dimethylamino)-β-D-xylo-hexopyranosy]oxy]-1-oxa-7-azacyclopentadecan-15-one]
2 ug/mi | 8 ug/mi | 1 ug/mi | 2 ug/mi | 1 ug/mi | CCC1OC(=O)C(C)C(OC2CC(C)(OC)C(O)(CNCCCNC3CCCCC3)C(C)O2)C(C)C(OC2OC(C)CC(N(C)C)C2O)C(C)(O)CC(C)NCC(C)C(O)C1(C)O [syzx-60, (2R,3S,4R,5S,8R,10R,11R,12S,13S,14R)-13-[(2,6-dideoxy-3-C-methyl-3-O-methyl-4-C-[[(3-cyclohexylamino)propylamino]-methyl]-α-L-ribopyranosyl)oxy]-2-ethyl-3,4,10-trihydroxy-3,5,8,10,12,14-hexamethyl-11-[[3,4,6-trideoxy-3-(dimethylamino)-β-D-xylo-hexopyranosy]oxy]-1-oxa-7-azacyclopentadecan-15-one]
≦0.25 ug/mi | 0.5 ug/mi | ≦0.25 ug/mi | ≦0.25 ug/mi | 0.5 ug/mi | CCCC(C)NC[C@]1(O)[C@H](C)O[C@@H](O[C@H]2[C@H](C)[C@@H](O[C@@H]3O[C@H](C)C[C@H](N(C)C)[C@H]3O)[C@](C)(O)C[C@@H](C)NC[C@H](C)[C@@H](O)[C@](C)(O)[C@@H](CC)OC(=O)[C@@H]2C)C[C@@]1(C)OC (some centres unmarked) [syzx-63]
